Measurements taken from patent US20240091209A1, “COMPOSITIONS AND METHODS FOR TREATMENT OF HIDRADENITIS SUPPURATIVA” (SUZHOU KINTOR PHARMACEUTICALS, INC., priority 2021, published 2024).
“Also recorded” adds a separate entry of the source.

What was measured:
[1] = test system: hidradenitis suppurativa (HS); settings: 24 female patients; ethinyloestradiol 50 μg + cyproterone acetate 50 mg vs ethinyloestradiol 50 μg + norgestrel 500 μg; positive benefits in both groups; cited from earlier work
[2] = men and women; cited from earlier work
[3] = target: T1, androgen receptor (AR) (Homo sapiens, UniProt P10275); settings: clinical evidence, no details given; cited from earlier work
T1 sequence (P10275 1-920): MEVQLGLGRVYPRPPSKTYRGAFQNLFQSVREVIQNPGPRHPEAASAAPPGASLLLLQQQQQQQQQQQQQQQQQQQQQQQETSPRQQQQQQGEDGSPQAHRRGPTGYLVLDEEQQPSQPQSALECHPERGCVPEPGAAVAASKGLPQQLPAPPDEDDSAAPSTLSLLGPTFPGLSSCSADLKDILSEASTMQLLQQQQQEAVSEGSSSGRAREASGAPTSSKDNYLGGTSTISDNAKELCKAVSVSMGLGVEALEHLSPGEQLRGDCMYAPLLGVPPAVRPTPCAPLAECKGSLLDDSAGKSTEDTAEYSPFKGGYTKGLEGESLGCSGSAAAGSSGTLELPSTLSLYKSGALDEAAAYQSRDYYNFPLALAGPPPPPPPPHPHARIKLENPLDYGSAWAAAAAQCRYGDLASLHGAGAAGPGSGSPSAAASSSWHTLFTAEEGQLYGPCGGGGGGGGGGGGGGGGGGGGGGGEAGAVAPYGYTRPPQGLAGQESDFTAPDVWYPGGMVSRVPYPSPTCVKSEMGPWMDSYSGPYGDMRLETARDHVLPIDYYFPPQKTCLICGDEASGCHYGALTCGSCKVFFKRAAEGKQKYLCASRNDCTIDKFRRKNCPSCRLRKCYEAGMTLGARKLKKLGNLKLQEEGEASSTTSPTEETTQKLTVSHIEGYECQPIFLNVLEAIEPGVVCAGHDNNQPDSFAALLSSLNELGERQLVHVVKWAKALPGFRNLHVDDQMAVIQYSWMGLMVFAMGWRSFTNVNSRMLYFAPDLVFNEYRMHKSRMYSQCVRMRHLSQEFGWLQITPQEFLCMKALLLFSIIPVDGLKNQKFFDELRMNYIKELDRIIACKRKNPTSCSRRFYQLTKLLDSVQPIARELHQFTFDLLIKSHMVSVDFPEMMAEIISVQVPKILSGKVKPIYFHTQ

[4] = Adverse events in the Proxalutamide HS study; type: in vivo, human; settings: 200 mg q.d. for 7 days; 2 subjects
Protocol: (§1) Overview: Four subjects, 2 males and 2 females, were recruited to the Proxalutamide HS study. At baseline (day 0) all subjects were diagnosed by a dermatologist with HS Hurley Stage 3. All subjects presented HS in the axilla region. Two subjects (1 male and 1 female) were treated for 7 days with Proxalutamide monotherapy 200 mg daily and two subjects were treated for 7 days with Proxalutamide placebo monotherapy 200 mg daily
(§2) Results: Following 7 days of treatment with Proxalutamide 200 mg q.d., all four subjects returned to the clinic to be assessed by a dermatologist. On day 7 both subjects treated with Proxalutamie were diagnosed by a dermatologist with HS Hurley Stage 1. […] On day 7 both subjects treated with Proxalutamie placebo were diagnosed by a dermatologist with HS Hurley Stage 3.

[5] = test system: hidradenitis suppurativa (HS); assay: Study of Proxalutamide for the treatment of HS (Hurley Stage after 7 days); type: in vivo, human
Protocol: as §1
Efficacy Endpoint: Hurley Stage following 7 days of treatment.
Formula: Proxalutamie 200 mg q.d.
as §2

Structure (SMILES)	Benefit in HS versus ethinyloestradiol plus norgestrel [1]	Safety in Phase II studies [2]	Effect on AR expression and activity [3]	Adverse events reported by the subjects [4]	HS Hurley Stage diagnosed by a dermatologist on day 7 ([5]; 200 mg q.d. monotherapy for 7 days, 2 subjects (1 male, 1 female), axilla, baseline Hurley Stage 3, placebo subjects stayed at Stage 3)	Severity of HS compared to the placebo ([5]; within 7 days, 200 mg q.d.)
CC(=O)O[C@]1(C(C)=O)CC[C@H]2[C@@H]3C=C(Cl)C4=CC(=O)[C@@H]5C[C@@H]5[C@]4(C)[C@H]3CC[C@@]21C [cyproterone acetate]	no statistically significant advantage					
CC1(C)C(=O)N(c2ccc(C#N)c(C(F)(F)F)c2F)C(=S)N1c1ccc(CCCc2ncco2)nc1 [Proxalutamide, proxalutamide]		safe in both men and women	lowers AR expression and activity	No adverse events; also recorded: without any adverse events	1	reduced the severity of HS
